From PubChem BioAssay (NCI)
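The compound was tested at five concentrations on cells cultured in 96-well plates, with a 48-hour exposure period. At the GI50, growth is halved. TGI: total growth inhibition.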 Where a SMILES comes first, the peptide text is derived from it. [ ]: non-standard residue; d: D form. The star is where a group is joined. ξ: configuration not given here. ξF = NC(Cc1ccccc1)C(=O)O; Cbz = O=C(OCc1ccccc1)*; Aib = CC(C)(N)C(=O)O

Experiments:
Experiment in all cases: NCI-60 cell line screen, 48 h
SF-295 CNS = test system: SF-295 CNS
UACC-257 melanoma = test system: UACC-257 melanoma
OVCAR-8 ovarian = test system: OVCAR-8 ovarian
CAKI-1 renal = test system: CAKI-1 renal
OVCAR-3 ovarian = test system: OVCAR-3 ovarian
COLO 205 colon = test system: COLO 205 colon
SK-MEL-5 melanoma = test system: SK-MEL-5 melanoma
UACC-62 melanoma = test system: UACC-62 melanoma
SK-MEL-2 melanoma = test system: SK-MEL-2 melanoma
U251 CNS = test system: U251 CNS

SMILES: CC(=O)Nc1cccc(N2C(=O)/C(=C\c3cccc(Oc4ccccc4)c3)S(=O)(=O)C2c2ccccc2)c1 (stereo not given)
- TGI (SF-295 CNS): > 100 µM
- TGI (UACC-257 melanoma): > 100 µM
- TGI (OVCAR-8 ovarian): > 100 µM
- TGI (CAKI-1 renal): > 100 µM
- TGI (OVCAR-3 ovarian): > 100 µM
- TGI (COLO 205 colon): > 100 µM
- TGI (SK-MEL-5 melanoma): > 100 µM
- TGI (UACC-62 melanoma): > 100 µM
- TGI (SK-MEL-2 melanoma): > 100 µM
- TGI (U251 CNS): > 100 µM

SMILES: COc1ccc(NC(C)=O)cc1N1C(=O)/C(=C\c2ccccc2)SC1c1cc(OC)c(OC)c(OC)c1 (stereo not given)
- TGI (SF-295 CNS): > 100 µM
- TGI (UACC-257 melanoma): > 100 µM
- TGI (OVCAR-8 ovarian): 71.4 µM
- TGI (CAKI-1 renal): > 100 µM
- TGI (OVCAR-3 ovarian): > 100 µM
- TGI (COLO 205 colon): > 100 µM
- TGI (SK-MEL-5 melanoma): 37 µM
- TGI (UACC-62 melanoma): > 100 µM
- TGI (SK-MEL-2 melanoma): > 100 µM
- TGI (U251 CNS): > 100 µM

SMILES: CN(CC(=O)O)Cc1c(O)c(Cl)cc(Cl)c1Cl
- TGI (SF-295 CNS): > 100 µM
- TGI (UACC-257 melanoma): 97.5 µM
- TGI (OVCAR-8 ovarian): > 100 µM
- TGI (CAKI-1 renal): > 100 µM
- TGI (OVCAR-3 ovarian): 38.8 µM
- TGI (COLO 205 colon): > 100 µM
- TGI (SK-MEL-5 melanoma): > 100 µM
- TGI (UACC-62 melanoma): 77.3 µM
- TGI (SK-MEL-2 melanoma): > 100 µM
- TGI (U251 CNS): > 100 µM

SMILES: NC(=O)C1CCCN1C(=O)C(N)Cc1ccccc1 (stereo not drawn) (H-Phe-Pro-NH2; configuration not given here)
- TGI (SF-295 CNS): > 100 µM
- TGI (OVCAR-8 ovarian): > 100 µM
- TGI (CAKI-1 renal): > 100 µM
- TGI (OVCAR-3 ovarian): > 100 µM
- TGI (COLO 205 colon): > 100 µM
- TGI (SK-MEL-5 melanoma): > 100 µM
- TGI (UACC-62 melanoma): > 100 µM
- TGI (U251 CNS): > 100 µM

SMILES: N#CC1=C2SCCN2C(=O)C(C#N)C12CCCCC2 (stereo not given)
- TGI (SF-295 CNS): > 100 µM
- TGI (UACC-257 melanoma): > 100 µM
- TGI (OVCAR-8 ovarian): > 100 µM
- TGI (CAKI-1 renal): > 100 µM
- TGI (OVCAR-3 ovarian): > 100 µM
- TGI (COLO 205 colon): > 100 µM
- TGI (SK-MEL-5 melanoma): > 100 µM
- TGI (UACC-62 melanoma): > 100 µM
- TGI (SK-MEL-2 melanoma): > 100 µM
- TGI (U251 CNS): > 100 µM

SMILES: Cc1cc2c(c(O)c1-c1c(C)cc(O)c3c1C(=O)C=CC3=O)C(=O)C=CC2=O
- TGI (SF-295 CNS): 33.1 µM
- TGI (CAKI-1 renal): 1.48 µM
- TGI (OVCAR-3 ovarian): 5.99 µM
- TGI (COLO 205 colon): 0.656 µM
- TGI (SK-MEL-5 melanoma): 14.5 µM
- TGI (UACC-62 melanoma): 4.98 µM
- TGI (SK-MEL-2 melanoma): 62.1 µM
- TGI (U251 CNS): 32.1 µM

SMILES: O=C1c2cccnc2C(=O)c2c1c(C(=O)OCCN1CCCCC1)c1ccccn21
- GI50 (SF-295 CNS): 0.0311 µM
- TGI (SF-295 CNS): 0.2 µM
- GI50 (UACC-257 melanoma): 0.0878 µM
- TGI (UACC-257 melanoma): 0.395 µM
- GI50 (OVCAR-8 ovarian): 0.0344 µM
- TGI (OVCAR-8 ovarian): 1.02 µM
- GI50 (CAKI-1 renal): 0.0269 µM
- TGI (CAKI-1 renal): 1.53 µM
- GI50 (OVCAR-3 ovarian): 0.172 µM
- TGI (OVCAR-3 ovarian): 2.81 µM
- GI50 (COLO 205 colon): 0.0481 µM
- TGI (COLO 205 colon): 0.169 µM
- GI50 (SK-MEL-5 melanoma): 0.0251 µM
- TGI (SK-MEL-5 melanoma): 0.113 µM
- GI50 (UACC-62 melanoma): 0.0121 µM
- TGI (UACC-62 melanoma): 0.069 µM
- GI50 (SK-MEL-2 melanoma): 0.0909 µM
- TGI (SK-MEL-2 melanoma): 0.224 µM
- GI50 (U251 CNS): 0.0183 µM
- TGI (U251 CNS): 0.179 µM

SMILES: COc1ccccc1CC(C)N (stereo not given)
- TGI (SF-295 CNS): > 100 µM
- TGI (UACC-257 melanoma): > 100 µM
- TGI (OVCAR-8 ovarian): > 100 µM
- TGI (CAKI-1 renal): > 100 µM
- TGI (OVCAR-3 ovarian): > 100 µM
- TGI (COLO 205 colon): > 100 µM
- TGI (SK-MEL-5 melanoma): > 100 µM
- TGI (UACC-62 melanoma): > 100 µM
- TGI (SK-MEL-2 melanoma): > 100 µM
- TGI (U251 CNS): > 100 µM

SMILES: C=C(C)[C@@H]1CCC2=C[C@H](C/C(C)=C\C3=CC(C)=C(O3)[C@H]1O)OC2=O
- TGI (SF-295 CNS): > 100 µM
- TGI (UACC-257 melanoma): > 100 µM
- TGI (OVCAR-8 ovarian): > 100 µM
- TGI (CAKI-1 renal): > 100 µM
- TGI (OVCAR-3 ovarian): > 100 µM
- TGI (COLO 205 colon): > 100 µM
- TGI (SK-MEL-5 melanoma): > 100 µM
- TGI (UACC-62 melanoma): > 100 µM
- TGI (SK-MEL-2 melanoma): > 100 µM
- TGI (U251 CNS): > 100 µM

SMILES: CCCCCCCCCCCCCCCCCCNc1ccn(C2OC(CO)C(OP(=O)(O)OCC(O)COP(=O)(O)OCC3OC(n4cc(F)c(NCCCCCCCCCCCCCCCCCC)nc4=O)CC3O)C2O)c(=O)n1 (stereo not given)
- TGI (SF-295 CNS): > 50 µM
- TGI (UACC-257 melanoma): > 50 µM
- TGI (OVCAR-8 ovarian): > 50 µM
- TGI (CAKI-1 renal): > 50 µM
- TGI (OVCAR-3 ovarian): > 50 µM
- TGI (COLO 205 colon): > 50 µM
- TGI (SK-MEL-5 melanoma): > 50 µM
- TGI (UACC-62 melanoma): > 50 µM
- TGI (SK-MEL-2 melanoma): > 50 µM
- TGI (U251 CNS): > 50 µM

SMILES: CCCCN1C(=O)c2c(Br)sc(Br)c2C1=O
- TGI (SF-295 CNS): > 100 µM
- TGI (UACC-257 melanoma): > 100 µM
- TGI (OVCAR-8 ovarian): > 100 µM
- TGI (CAKI-1 renal): > 100 µM
- TGI (COLO 205 colon): 39.1 µM
- TGI (SK-MEL-5 melanoma): > 100 µM
- TGI (UACC-62 melanoma): > 100 µM
- TGI (SK-MEL-2 melanoma): > 100 µM
- TGI (U251 CNS): > 100 µM

SMILES: CCOC(=O)CNC(=O)C(Cc1ccccc1)NC(=O)C(C)(C)NC(=O)OCc1ccccc1 (stereo not given) (Cbz-[Aib]-[ξF]-Gly-OEt)
- TGI (SF-295 CNS): > 100 µM
- TGI (UACC-257 melanoma): > 100 µM
- TGI (OVCAR-8 ovarian): > 100 µM
- TGI (CAKI-1 renal): > 100 µM
- TGI (OVCAR-3 ovarian): 78.2 µM
- TGI (COLO 205 colon): > 100 µM
- TGI (SK-MEL-5 melanoma): > 100 µM
- TGI (UACC-62 melanoma): 40.9 µM
- TGI (U251 CNS): > 100 µM

SMILES: C[Si](C)(C)c1ccc(-c2c3ccc(-c4cc(Br)cc(Br)c4)nc3nc3nc(-c4cc(Br)cc(Br)c4)ccc23)cc1
- TGI (SF-295 CNS): > 100 µM
- TGI (UACC-257 melanoma): > 100 µM
- TGI (CAKI-1 renal): > 100 µM
- TGI (OVCAR-3 ovarian): > 100 µM
- TGI (COLO 205 colon): > 100 µM
- TGI (SK-MEL-5 melanoma): > 100 µM
- TGI (UACC-62 melanoma): > 100 µM
- TGI (SK-MEL-2 melanoma): > 100 µM
- TGI (U251 CNS): > 100 µM

SMILES: COC(=O)C1=C(C)N2CCSC2(C)C(C(=O)OC)C1c1cccc(Cl)c1 (stereo not given)
- TGI (SF-295 CNS): 34 µM
- TGI (UACC-257 melanoma): 21.7 µM
- TGI (OVCAR-8 ovarian): > 100 µM
- TGI (CAKI-1 renal): 70 µM
- TGI (OVCAR-3 ovarian): 34.6 µM
- TGI (COLO 205 colon): 35.4 µM
- TGI (SK-MEL-5 melanoma): 29 µM
- TGI (UACC-62 melanoma): 32.6 µM
- TGI (SK-MEL-2 melanoma): 34.2 µM

SMILES: CCOC(=O)C1(C/C=C/CCl)CCCC1=O (stereo not given)
- TGI (SF-295 CNS): > 100 µM
- TGI (UACC-257 melanoma): > 100 µM
- TGI (OVCAR-8 ovarian): 38.2 µM
- TGI (CAKI-1 renal): 79.5 µM
- TGI (COLO 205 colon): 72.9 µM
- TGI (SK-MEL-5 melanoma): 33.9 µM
- TGI (UACC-62 melanoma): 30.2 µM
- TGI (SK-MEL-2 melanoma): 59 µM
- TGI (U251 CNS): 86.7 µM

SMILES: CN(C)CCNC(=O)c1cc(Cl)cc2cc3ccccc3nc12
- TGI (SF-295 CNS): 2.85 µM
- TGI (UACC-257 melanoma): 3.66 µM
- TGI (OVCAR-8 ovarian): 6.18 µM
- TGI (OVCAR-3 ovarian): 16 µM
- TGI (COLO 205 colon): 1.66 µM
- TGI (SK-MEL-5 melanoma): 2.6 µM
- TGI (UACC-62 melanoma): 1.98 µM
- TGI (SK-MEL-2 melanoma): 3.76 µM
- TGI (U251 CNS): 8.4 µM
